The compounds below were run against PAK4 kinase domain (PAK4 KD) (Homo sapiens (Human), UniProt O96013) (assay: PAK4 kinase domain enzymatic assay (coupled PK/LDH, NADH absorbance at 340 nm)). Details: PAK4 kinase domain, 25 nM PAK4 KD, 0.04 mM ATP, pH 7.5.
Assay type: biochemical
From the text: Cloning, expression, and purification of recombinant PAK4 Kinase domain (PAK4 KD): The cDNA coding for PAK4 was amplified from the EST clone (#12) (purchased from Research Genetics) by using PCR. […] The PCR amplified product was cloned into Topo vector (Invitrogen Inc.), and verified by DNA sequencing. PAK4 KD was then subcloned into expression plasmid pET28a(+), pET24a(+), or pGST4.5. The recombinant plasmids containing PAK4 KD was transformed into BL21(DE3) cells for recombinant protein expression. […] The cells were then harvested and lyzed for protein purification. Ni-NTA column (pET28a(+), pET24a(+)) and glutathione column (pGST4.5) were used for the purification.
PAK4 kinase domain enzymatic assay conditions: the enzymatic activity of PAK4 KD was measured by its ability to catalyze the transfer of a phosphate residue from a nucleoside triphosphate to an amino acid side chain of a commercially available peptide (amino acid sequence […]). The conversion of ATP to ADP accompanies the catalytic reaction. The PAK4 KD catalyzed production of ADP from ATP was coupled to the oxidation of NADH through the activities of pyruvate kinase (PK) and lactate dehydrogenase (LDH). The conversion of NADH to NAD^+ is monitored by the decrease in absorbance at 340 nm (e340=6.22 cm^−1mM^−1) using a Molecular Devices SPECTRAMAX 190 in conjunction with the Biomec FX. Typical reaction solutions contain 2 mM phosphoenolpyruvate, 0.35 mM NADH, 10 mM MgCl2, 1 mM DTT, 0.4 mM peptide ([…]) 0.04 mM ATP, 1 units/mL PK, 1 units/mL LDH, 0.01% Tween 20 in 50 mM HEPES, pH 7.5. […] The PAK KD Ki of each compound of the invention (the inhibitor) was calculated based on multiple of Percent Inhibition numbers of the inhibitor at different inhibitor concentrations. The peptide (amino sequence […]) was purchased from American Peptide Company. NADH, MgCl2, HEPES, DTT, ATP and PK/LDH were purchased from Sigma. Tween 20 was purchased from Calbiochem.

Sequence of PAK4 kinase domain (PAK4 KD) (O96013 321-572): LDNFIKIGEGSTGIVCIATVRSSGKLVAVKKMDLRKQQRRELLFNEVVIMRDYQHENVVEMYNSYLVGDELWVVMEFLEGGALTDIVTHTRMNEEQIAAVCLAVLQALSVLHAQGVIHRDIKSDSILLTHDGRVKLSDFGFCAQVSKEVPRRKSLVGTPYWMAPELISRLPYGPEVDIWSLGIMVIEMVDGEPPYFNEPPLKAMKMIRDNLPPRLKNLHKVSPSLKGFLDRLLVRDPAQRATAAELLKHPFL

| SMILES | Ki [nM] |
| --- | --- |
| CC1(C)c2[nH]nc(Nc3cc(Cl)nc(Cl)n3)c2CN1C(=O)N[C@H]1C[C@@H]1c1ccccc1 (relative stereo) [Example 4, 3-[(2,6-dichloropyrimidin-4-yl)amino]-6,6-dimethyl-N-[trans-2-phenylcyclopropyl]-4,6-dihydropyrrolo[3,4-c]pyrazole-5(1H)-carboxamide] | 110 |
| CC1(C)c2[nH]nc(Nc3nc(N)nc(Cl)n3)c2CN1C(=O)N[C@@H]1C[C@H]1c1ccccc1 (relative stereo) [Example 8, 3-[(4-amino-6-chloro-1,3,5-triazin-2-yl)amino]-6,6-dimethyl-N-[trans-2-phenylcyclopropyl]-4,6-dihydropyrrolo[3,4-c]pyrazole-5(1H)-carboxamide] | 610 |
| CSc1nc(Nc2n[nH]c3c2CN(C(=O)N[C@@H]2C[C@H]2c2ccccc2)C3(C)C)cc(C(F)(F)F)n1 (relative stereo) [Example 11, 6,6-dimethyl-3-{[2-(methylthio)-6-(trifluoromethyl)pyrimidin-4-yl]amino}-N-[trans-2-phenylcyclopropyl]-4,6-dihydropyrrolo[3,4-c]pyrazole-5(1H)-carboxamide] | 960 |
| COc1nc(Nc2n[nH]c3c2CN(C(=O)N[C@H]2C[C@@H]2c2ccccc2)C3(C)C)nc(OC)n1 (relative stereo) [Example 14, 3-[(4,6-dimethoxy-1,3,5-triazin-2-yl)amino]-6,6-dimethyl-N-[trans-2-phenylcyclopropyl]-4,6-dihydropyrrolo[3,4-c]pyrazole-5(1H)-carboxamide] | 270 |
| COc1nc(Nc2n[nH]c3c2CN(C(=O)N[C@@H]2C[C@H]2c2ccccc2)C3(C)C)nc(N2CCCC2)n1 (relative stereo) [Example 19, 3-[(4-methoxy-6-pyrrolidin-1-yl-1,3,5-triazin-2-yl)amino]-6,6-dimethyl-N-[trans-2-phenylcyclopropyl]-4,6-dihydropyrrolo[3,4-c]pyrazole-5(1H)-carboxamide] | 190 |
| CC1(C)c2[nH]nc(Nc3cc(C(F)(F)F)ccn3)c2CN1C(=O)N[C@H]1C[C@@H]1c1ccccc1 (relative stereo) [Example 25, 3-[(4-trifluoromethylpyridin-2-yl)amino]-6,6-dimethyl-N-[trans-2-phenylcyclopropyl]-4,6-dihydropyrrolo[3,4-c]pyrazole-5(1H)-carboxamide] | 780 |
| CNC(=O)[C@@H]1CCCN1c1nc(Nc2n[nH]c3c2CN(C(=O)NC2CC2c2ccccc2)C3(C)C)nc(OC)n1 (some centres unmarked) [Example 17] | 770 |
| COc1nc(Nc2n[nH]c3c2CN(C(=O)NC2CC2c2ccccc2)C3(C)C)nc(N2CC2C)n1 (stereo not drawn) [Example 18, 3-{[4-methoxy-6-(2-methylaziridin-1-yl)-1,3,5-triazin-2-yl]amino}-6,6-dimethyl-N-[trans-2-phenylcyclopropyl]-4,6-dihydropyrrolo[3,4-c]pyrazole-5(1H)-carboxamide] | 340 |
| COc1nc(Nc2n[nH]c3c2CN(C(=O)NC2CC2c2ccccc2)C3(C)C)nc(N2CCC[C@H]2C(N)=O)n1 (stereo partly drawn) [Example 21, 3-({4-[(2S)-2-(aminocarbonyl)pyrrolidin-1-yl]-6-methoxy-1,3,5-triazin-2-yl}amino)-6,6-dimethyl-N-[trans-2-phenylcyclopropyl]-4,6-dihydropyrrolo[3,4-c]pyrazole-5(1H)-carboxamide] | 240 |
| CN(C)c1nc(Nc2n[nH]c3c2CN(C(=O)NC2C[C@@H]2c2ccccc2)C3(C)C)nc(N2CCC[C@H]2C(N)=O)n1 (some centres unmarked) [Example 22] | 720 |
| Cc1cc(C)nc(Nc2n[nH]c3c2CN(C(=O)NC2C[C@@H]2c2ccccc2)C3(C)C)n1 (some centres unmarked) [Example 24] | 640 |

Continued, values first:

| Ki [nM] | SMILES |
| --- | --- |
| 220 | Cc1cc(C(F)(F)F)cc(Nc2n[nH]c3c2CN(C(=O)N[C@H]2C[C@@H]2c2ccccc2)C3(C)C)n1 (relative stereo) [Example 26, 3-[(4-trifluoromethyl-6-methylpyridin-2-yl)amino]-6,6-dimethyl-N-[trans-2-phenylcyclopropyl]-4,6-dihydropyrrolo[3,4-c]pyrazole-5(1H)-carboxamide] |
| 200 | CC1(C)c2[nH]nc(Nc3cccc(C(F)(F)F)n3)c2CN1C(=O)N[C@H]1C[C@@H]1c1ccccc1 (relative stereo) [Example 27, 3-[(6-trifluoromethylpyridin-2-yl)amino]-6,6-dimethyl-N-[trans-2-phenylcyclopropyl]-4,6-dihydropyrrolo[3,4-c]pyrazole-5(1H)-carboxamide] |
| 270 | CC1(C)c2[nH]nc(Nc3nccc(C(F)(F)F)n3)c2CN1C(=O)N[C@H]1C[C@@H]1c1ccccc1 (relative stereo) [Example 28, 6,6-dimethyl-N-[trans-2-phenylcyclopropyl]-3-{[4-(trifluoromethyl)pyrimidin-2-yl]amino}-4,6-dihydropyrrolo[3,4-c]pyrazole-5(1H)-carboxamide] |
| 660 | CC1(C)c2[nH]nc(Nc3cc(C#N)ccn3)c2CN1C(=O)N[C@H]1C[C@@H]1c1ccccc1 (relative stereo) [Example 29, 3-[(4-cyanopyridin-2-yl)amino]-6,6-dimethyl-N-[trans-2-phenylcyclopropyl]-4,6-dihydropyrrolo[3,4-c]pyrazole-5(1H)-carboxamide] |
| 1000 | CC1(C)c2[nH]nc(Nc3ncncc3F)c2CN1C(=O)N[C@H]1C[C@@H]1c1ccccc1 (relative stereo) [Example 48, 3-[(5-fluoropyrimidin-4-yl)amino]-6,6-dimethyl-N-[trans-2-phenylcyclopropyl]-4,6-dihydropyrrolo[3,4-c]pyrazole-5(1H)-carboxamide] |
| 100 | CC1(C)c2[nH]nc(Nc3ncnc4ccccc34)c2CN1C(=O)N[C@@H]1C[C@H]1c1ccccc1 (relative stereo) [Example 85, 3-(quinazolin-4-ylamino)-6,6-dimethyl-N-[trans-2-phenylcyclopropyl]-4,6-dihydropyrrolo[3,4-c]pyrazole-5(1H)-carboxamide] |
| 55 | CC1(C)c2[nH]nc(Nc3nc(C4CC4)nc4ccccc34)c2CN1C(=O)N[C@@H]1C[C@H]1c1ccccc1 (relative stereo) [Example 86, 3-[(2-cyclopropylquinazolin-4-yl)amino]-6,6-dimethyl-N-[trans-2-phenylcyclopropyl]-4,6-dihydropyrrolo[3,4-c]pyrazole-5(1H)-carboxamide] |
| 140 | CCc1cc(Nc2n[nH]c3c2CN(C(=O)N[C@H](CN(C)C)c2ccccc2)C3(C)C)ncn1 [Example 54, N-[(1S)-2-(Dimethylamino)-1-phenylethyl]-3-[(6-ethylpyrimidin-4-yl)amino]-6,6-dimethyl-4,6-dihydropyrrolo[3,4-c]pyrazole-5(1H)-carboxamide] |
| 940 | CN(C)C[C@@H](NC(=O)N1Cc2c(Nc3ncnc4c3ncn4C)n[nH]c2C1(C)C)c1ccccc1 [Example 57, N-[(1S)-2-(dimethylamino)-1-phenylethyl]-6,6-dimethyl-3-[(9-methyl-9H-purin-6-yl)amino]-4,6-dihydropyrrolo[3,4-c]pyrazole-5(1H)-carboxamide] |
| 5.2 | Cc1cc2c(Nc3n[nH]c4c3CN(C(=O)O[C@H](CN(C)C)c3ccccc3)C4(C)C)ncnc2s1 [Example 71, (1S)-2-(dimethylamino)-1-phenylethyl 6,6-dimethyl-3-[(6-methylthieno[2,3-d]pyrimidin-4-yl)amino]-4,6-dihydropyrrolo[3,4-c]pyrazole-5(1H)-carboxylate] |
| 84 | Cc1csc2c(Nc3n[nH]c4c3CN(C(=O)N3C[C@@H]5CCCN5C[C@@H]3C)C4(C)C)ncnc12 [Example 81, N-(6,6-dimethyl-5-{[(3S,8aS)-3-methylhexahydropyrrolo[1,2-a]pyrazin-2(1H)-yl]carbonyl}-1,4,5,6-tetrahydropyrrolo[3,4-c]pyrazol-3-yl)-7-methylthieno[3,2-d]pyrimidin-4-amine] |
| 2500 | Cc1ncnc(Nc2n[nH]c3c2CN(C(=O)N2C[C@@H]4CCCN4C[C@@H]2C)C3(C)C)c1F [Example 82, N-(5-fluoro-6-methylpyrimidin-4-yl)-6,6-dimethyl-5-{[(3S,8aS)-3-methylhexahydropyrrolo[1,2-a]pyrazin-2(1H)-yl]carbonyl}-1,4,5,6-tetrahydropyrrolo[3,4-c]pyrazol-3-amine] |

— patent US8530652B2, “Pyrrolopyrazoles, potent kinase inhibitors” (Agouron Pharmaceuticals, Inc., priority 2005, dated 2013)
